Results taken from the supplement of paper PMC10307832.

Columns and labels:
Assay in all cases: relative viability (nuclei count vs DMSO), 5 days (fraction); higher = more cells survive
Tosedostat + Alpelisib = compound: CC(C)C[C@@H](C(=O)N[C@H](C(=O)OC1CCCC1)c1ccccc1)[C@H](O)C(=O)NO [Tosedostat] + Cc1nc(NC(=O)N2CCC[C@H]2C(N)=O)sc1-c1ccnc(C(C)(C)C(F)(F)F)c1 [Alpelisib] (partner 2 µM)
In short: (§1)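 One day after seeding in 1536-well plates, lung cancer cell lines were dosed by pin tool. Dosing was either single-drug or a fixed anchor-drug dose plus five library-drug doses (not always all listed) in √10 steps. After 5 days, nuclei were stained in one fix-and-stain step and counted on 4× images, and relative viability is the nuclei count of treated wells over that of vehicle wells, given as the median of duplicate plates.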

[1] = compound: CC1=NN=C(O1)C2=NN=C(C=C2)N3CCC(CC3)OC4=C(C=CC(=C4)F)Cl + CC(=O)c1c(C)c2cnc(Nc3ccc(N4CCNCC4)cn3)nc2n(C2CCCC2)c1=O [Palbociclib] (partner 0.5 µM)
In short: as §1

[2] = compound: CC1=NN=C(O1)C2=NN=C(C=C2)N3CCC(CC3)OC4=C(C=CC(=C4)F)Cl + CC(C)C[C@H](NC(=O)[C@H](Cc1ccccc1)NC(=O)c1cnccn1)B(O)O [Bortezomib] (partner 0.002 µM)
In short: as §1

[3] = compound: CC1=NN=C(O1)C2=NN=C(C=C2)N3CCC(CC3)OC4=C(C=CC(=C4)F)Cl + NC(=O)Nc1cc(-c2cccc(F)c2)sc1C(=O)N[C@H]1CCCNC1 [AZD7762] (partner 0.2 µM)
In short: as §1

Row | Cell Line | relative viability (Tosedostat + Alpelisib; first compound 0.02 µM) | relative viability (Tosedostat + Alpelisib; first compound 0.06325 µM) | relative viability (Tosedostat + Alpelisib; first compound 0.2 µM) | relative viability (Tosedostat + Alpelisib; first compound 0.6325 µM) | relative viability (Tosedostat + Alpelisib; first compound 2 µM) | relative viability ([1]; first compound 0.253 µM) | relative viability ([1]; first compound 0.8 µM) | relative viability ([1]; first compound 2.53 µM) | relative viability ([1]; first compound 8 µM) | relative viability ([2]; first compound 0.253 µM) | relative viability ([2]; first compound 0.8 µM) | relative viability ([2]; first compound 2.53 µM) | relative viability ([2]; first compound 8 µM) | relative viability ([3]; first compound 0.253 µM) | relative viability ([3]; first compound 0.8 µM) | relative viability ([3]; first compound 2.53 µM) | relative viability ([3]; first compound 8 µM)
1 | NCI-H647 | 1.3 | 1.13 | 1.02 | 1.09 | 1.14 | 0.168 | 0.201 | 0.155 | 0.0745 | 0.539 | 0.742 | 0.786 | 0.606 | 0.462 | 0.294 | 0.472 | 0.248
2 | HARA | 0.887 | 0.839 | 0.875 | 0.716 | 0.74 | 0.233 | 0.25 | 0.235 | 0.222 | 0.483 | 0.335 | 0.353 | 0.293 | 0.416 | 0.305 | 0.387 | 0.337
3 | NCI-H2347 | 1.14 | 0.971 | 1.01 | 1.02 | 1.03 | 0.459 | 0.43 | 0.411 | 0.386 | 0.611 | 0.8 | 0.898 | 0.799 | 0.56 | 0.572 | 0.637 | 0.489
4 | NCI-H1651 | 0.832 | 0.92 | 0.996 | 0.995 | 0.924 | 0.337 | 0.387 | 0.331 | 0.346 | 0.782 | 0.708 | 0.649 | 0.686 | 0.423 | 0.412 | 0.448 | 0.386
5 | PC-3 [JPC-3] | 1.03 | 1.03 | 1.06 | 0.924 | 0.727 | 0.507 | 0.538 | 0.537 | 0.551 | 0.519 | 0.614 | 0.726 | 0.666 | 0.702 | 0.602 | 0.728 | 0.914
6 | 201T | 0.967 | 1.08 | 1.07 | 1.21 | 1.15 | 0.219 | 0.251 | 0.221 | 0.21 | 0.484 | 0.569 | 0.592 | 0.552 | 0.447 | 0.481 | 0.531 | 0.505
7 | HCC-44 | 0.684 | 0.874 | 0.767 | 0.886 | 0.544 | 0.366 | 0.434 | 0.412 | 0.355 | 0.449 | 0.43 | 0.398 | 0.431 | 0.388 | 0.609 | 0.495 | 0.452
8 | NCI-H838 | 1.03 | 0.903 | 1 | 1.04 | 1.17 | 0.192 | 0.24 | 0.222 | 0.196 | 0.697 | 0.592 | 0.553 | 0.645 | 0.74 | 0.778 | 0.918 | 0.787
9 | H3255 | 0.666 | 0.642 | 0.589 | 0.568 | 0.663 | 0.296 | 0.305 | 0.309 | 0.321 | 0.465 | 0.569 | 0.478 | 0.526 | 0.633 | 0.663 | 0.628 | 0.639
10 | PC-14 | 0.806 | 0.903 | 0.956 | 0.899 | 0.786 | 0.503 | 0.444 | 0.449 | 0.44 | 0.782 | 0.655 | 0.681 | 0.741 | 0.28 | 0.271 | 0.374 | 0.253
11 | NCI-H322M | 0.726 | 0.902 | 0.537 | 0.755 | 0.53 | 0.471 | 0.509 | 0.469 | 0.492 | 1.05 | 1.05 | 1.21 | 1.11 | 0.51 | 0.563 | 0.581 | 0.543
12 | NCI-H727 | 0.665 | 0.569 | 0.472 | 0.41 | 0.364 | 0.672 | 0.708 | 0.718 | 0.596 | 0.528 | 0.702 | 1 | 0.696 | 0.823 | 0.597 | 0.623 | 0.555
13 | EKVX | 0.868 | 0.86 | 0.835 | 0.838 | 0.87 | 0.282 | 0.257 | 0.286 | 0.292 | 0.368 | 0.301 | 0.357 | 0.418 | 0.517 | 0.434 | 0.465 | 0.535
14 | EPLC-272H | 0.777 | 0.999 | 0.719 | 0.747 | 0.505 | 0.281 | 0.314 | 0.277 | 0.34 | 0.667 |  | 1.05 | 0.996 | 0.236 | 0.369 | 0.268 | 0.197
15 | NCI-H1666 | 0.99 | 0.841 | 1.06 | 0.995 | 0.951 | 0.632 | 0.684 | 0.651 | 0.627 | 0.419 | 0.851 | 0.756 | 0.57 | 0.686 | 0.765 | 0.79 | 0.715
16 | NCI-H2405 | 0.78 | 0.804 | 0.829 | 0.787 | 0.76 | 0.319 | 0.349 | 0.332 | 0.346 | 0.468 | 0.415 | 0.47 | 0.453 | 0.684 | 0.684 | 0.627 | 0.654

Row | Cell Line | relative viability (Tosedostat + Alpelisib; first compound 0.02 µM) | relative viability (Tosedostat + Alpelisib; first compound 0.06325 µM) | relative viability (Tosedostat + Alpelisib; first compound 0.2 µM) | relative viability (Tosedostat + Alpelisib; first compound 0.6325 µM) | relative viability (Tosedostat + Alpelisib; first compound 2 µM) | relative viability ([1]; first compound 0.253 µM) | relative viability ([1]; first compound 0.8 µM) | relative viability ([1]; first compound 2.53 µM) | relative viability ([1]; first compound 8 µM) | relative viability ([2]; first compound 0.253 µM) | relative viability ([2]; first compound 0.8 µM) | relative viability ([2]; first compound 2.53 µM) | relative viability ([2]; first compound 8 µM) | relative viability ([3]; first compound 0.253 µM) | relative viability ([3]; first compound 0.8 µM) | relative viability ([3]; first compound 2.53 µM) | relative viability ([3]; first compound 8 µM)
17 | NCI-H2126 | 0.664 | 0.744 | 0.757 | 0.774 | 0.661 | 0.368 | 0.338 | 0.326 | 0.353 | 0.965 | 0.907 | 0.842 | 0.837 | 0.893 | 0.854 | 0.929 | 0.849
18 | NCI-H460 | 0.535 | 0.472 | 0.619 | 0.689 | 0.796 | 0.0613 | 0.0812 | 0.0833 | 0.0883 | 0.382 | 0.358 | 0.342 | 0.315 | 0.215 | 0.189 | 0.26 | 0.23
19 | NCI-H1993 | 0.61 | 0.688 | 0.843 | 0.561 | 0.588 | 0.523 | 0.579 | 0.644 | 0.603 | 0.922 | 0.901 | 0.925 | 0.966 | 0.713 | 0.69 | 0.769 | 0.652
20 | HCC-78 | 0.294 | 0.338 | 0.257 | 0.336 | 0.454 | 0.454 | 0.366 | 0.473 | 0.457 | 0.326 | 0.403 | 0.393 | 0.363 | 0.457 | 0.483 | 0.463 | 0.373
21 | LU99A | 0.633 | 0.445 | 0.501 | 0.486 | 0.477 | 0.402 | 0.484 | 0.443 | 0.418 | 1.01 | 1 | 1.06 | 0.953 | 0.349 | 0.341 | 0.57 | 0.385
22 | HCC-827 | 0.826 | 0.934 | 1.02 | 0.842 | 0.875 | 0.317 | 0.283 | 0.355 | 0.3 | 0.514 | 0.381 | 0.524 | 0.523 | 0.299 | 0.158 | 0.213 | 0.2
23 | NCI-H1975 | 0.658 | 0.602 | 0.537 | 0.473 | 0.495 | 0.2 | 0.363 | 0.517 | 0.411 |  | 0.367 | 0.299 | 0.306 |  |  | 0.717 | 0.719
24 | NCI-H2085 | 0.904 | 1.02 | 1.06 | 0.936 | 0.887 | 0.425 | 0.431 | 0.469 | 0.37 | 0.745 | 0.813 | 1.03 | 0.761 | 0.636 | 0.667 | 0.797 | 0.607
25 | NCI-H1792 | 0.761 | 0.745 | 0.649 | 0.602 | 0.67 | 0.358 | 0.502 | 0.449 | 0.474 | 0.405 | 0.423 | 0.401 | 0.494 | 0.535 | 0.574 | 0.689 | 0.472
26 | NCI-H1734 | 0.672 | 0.647 | 0.742 | 0.593 | 0.646 | 0.344 | 0.334 | 0.345 | 0.324 | 0.65 | 0.592 | 0.824 | 0.805 | 0.612 | 0.413 | 0.672 | 0.662
27 | NCI-H650 | 1 | 1.15 | 1.14 | 0.97 | 0.683 | 0.323 | 0.318 | 0.32 | 0.314 | 0.787 | 0.546 | 0.716 | 0.555 | 0.943 | 0.642 | 0.985 | 0.882
28 | LCLC-103H | 0.896 | 0.95 | 0.948 | 1.11 | 1.07 | 0.343 | 0.32 | 0.321 | 0.343 | 0.69 | 0.829 | 0.744 | 0.675 | 0.62 | 0.657 | 0.633 | 0.631
29 | LCLC-97TM1 | 0.199 |  |  | 0.247 | 0.211 | 0.184 |  | 0.164 | 0.19 | 0.373 | 0.211 | 0.392 | 0.362 | 0.264 |  | 0.235 | 0.205
30 | HOP-62 | 0.92 | 1.01 | 0.697 | 0.984 | 0.744 | 0.351 | 0.356 | 0.265 | 0.212 | 0.577 |  | 0.764 | 0.419 | 0.556 | 0.22 | 0.452 | 0.228
31 | NCI-H23 | 0.615 | 0.745 | 0.536 | 0.513 | 0.538 | 0.44 | 0.442 | 0.466 | 0.454 | 0.948 |  | 0.894 | 0.838 | 0.191 | 0.192 | 0.288 | 0.206
